Experimental data from US20260209152A1, “Substituted Hydroxystilbene Compounds and Derivatives, Synthesis and Uses Thereof” (Kynan Duke IP, LLC, priority 2019, published 2026).
Read-outs that look alike come from different tables or passages of the source.

Experiments:
Kidney A-498 = assay: CellTiter Glo cell viability assay; type: cell-based, human; details: Homo sapiens, A498, Table 5A: 11 dilutions 3-0.00001 μM; single experiments Exp E-K; read-out: IC50
Method: (§1) 1.7*10^3 cells/well were seeded in quadruplicates in 96-well plate after plating. […] Cell growth was assessed on day 1, 3 and 5 after drug treatments using the CellTiter Glo Luminescence Cell Viability Assay (Promega) according to manufacturer's protocol. Thermo Scientific Varioskan LUX Multimode Microplate instrument was used for plate reading. Data are expressed as mean luminescence (arbitrary units) ±S.D.
(§2) Cell Viability Assays were employed to determine the concentration of Compound 1 (KYN-001) and analogues where the response is reduced by half. […] GraphPad Prism 7 software was used to fit dose response curves. Relative Luminescence Units were plotted against the log values of the doses used and the nonlinear regression model was used for data analysis.
The protocol for cell proliferation was optimized for Compound 8 (KYN-119) to enable a more accurate assessment of its low IC50 value. […]

[1] = system: Cancer cells including pancreatic, bladder, kidney, colon, breast, lung, liver and osteosarcomas; assay: CellTiter Glo cell viability assay, panel of cancer cell lines; type: cell-based, human; details: SAR discussion based on IC50 values in Tables 1 to 5; compared with 1 [KYN-001]
Method: Compounds 1 to 15 were evaluated and their effect on cancer growth examined in cell viability assays on multiple cancer types (Tables 1 to 5). Cancer cells including pancreatic, bladder, kidney, colon, breast, lung, liver and osteosarcomas obtained from ATCC (American Type Culture Collection) were authenticated before use by Short Tandem Repeat genomic analysis (Reid Y, Storts D, Riss T and Minor L. Authentication of Human Cell Lines by STR DNA Profiling Analysis. 2013 May 1. In: Markossian S, Sittampalam G S, Grossman A, et al., editors. Assay Guidance Manual. Bethesda (MD): Eli Lilly & Company and the National Center for Advancing Translational Sciences; 2004.). Experimental protocol for each cancer cell line was verified and optimized according to literature reports before use (Tables 1 to 3).
(§3) 1.7*10^3 cells/well were seeded in quadruplicates in 96-well plate after plating. Drugs were added at 5 μM and 2-fold dilutions over 18 concentrations (0.000038146-5 […] range) to generate a dose-response curve. Cell growth was assessed on day 1, 3 and 5 after drug treatments using the CellTiter Glo Luminescence Cell Viability Assay (Promega) according to manufacturer's protocol. Thermo Scientific Varioskan LUX Multimode Microplate instrument was used for plate reading. Data are expressed as mean luminescence (arbitrary units) ±S.D.
(§4) Cell Viability Assays were employed to determine the concentration of Compound 1 (KYN-001) and analogues where the response is reduced by half. For each treatment of cancer cells, 1, 2, 5, 10 and 20 μM solutions of compounds were applied. GraphPad Prism 7 software was used to fit dose response curves. Relative Luminescence Units were plotted against the log values of the doses used and the nonlinear regression model was used for data analysis.
(§5) The protocol for cell proliferation was optimized for Compound 8 (KYN-119) to enable a more accurate assessment of its low IC50 value. In this protocol, 18 dosages (2 fold dilutions ranging from 0.000038146 to 5 μM) were applied to cells seeded in 96-well plates, and Luminescence was measured after 1, 3 and 5 days upon treatments.

[2] = Stability in solution (LCMS observation); type: physicochemical; details: standing in methanol for 16 hours; acetonitrile in water chromatography
Method: NOTE: In a trial run, compound 15-9 (50 mg) was converted to compound 15 using conditions as described above.

Pancreatic MIA PaCa-2 = assay: CellTiter Glo cell viability assay; type: cell-based, human; details: Homo sapiens, read-out: IC50
Method: as §3, §4, §5
Day 3 upon treatment of MIA PaCa_2 pancreatic cancer cells, 24 h after plating (11 dilutions), as assessed by CellTiter Glow Assay.

Brain U-87 MG HTB-14 = assay: CellTiter Glo cell viability assay; type: cell-based; details: Homo sapiens, Table 5B: 11 dilutions 3-0.00001 μM, Exp L-N
Method: as §1, §2

GBM patient sample BNB04 = assay: Ex vivo GBM 3D spheroid drug response (CellTiter-Glo 3D); type: cell-based, human; set-up: key to TMZ Response: NR: Non-responder; MR: Moderate responder; Responder; details: 3D spheroids
Excerpt: (§6) This project involves an ex vivo drug response screen for 3 ROKiT Pharma test agents and Temozolomide in 3 previously dissociated and cryopreserved GBM samples.
(§7) • 2.1 Three previously processed GBM patient samples were chosen to be used in this study.

GBM patient sample BNB18 = assay: as above; type: cell-based, human; set-up: key to TMZ Response: NR: Non-responder; MR: Moderate responder; Responder; details: 3D spheroids
Excerpt: as §6, §7

GBM patient sample BNA99 = assay: as above; type: cell-based, human; set-up: key to TMZ Response: NR: Non-responder; MR: Moderate responder; Responder; details: 3D spheroids
Excerpt: as §6, §7

[3] = system: IL-17A secretion from human PBMC stimulated with antiCD3/antiCD28-coated beads; details: assay description, cited from earlier work
[4] = MIA PaCa-2, Table 5B: MIA PaCa-2 CRL-1420, 11 dilutions 3-0.00001 μM, Exp L-N

SMILES | IC50 (Brain U-87 MG HTB-14) [nM] | IC50 (Pancreatic MIA PaCa-2; [4]) [nM] | Cancer cell viability inhibition, statement in words [1] | further results
CNc1cc(/C=C/c2cc(O)cc(OC)c2CC=C(C)C)ccc1O [Compound 15, (E)-3-(4-Hydroxy-3-(methylamino)styryl)-5-methoxy-4-(3-methylbut-2-en-1-yl)phenol] |  |  | inactive or weakly active | IC50 (Kidney A-498): > 3000 nM; Stability in solution [2]: might be unstable in solution; IC50 (Pancreatic MIA PaCa-2; MIA PaCa-2, Table 5A: 11 dilutions 3-0.00001 μM, single experiments Exp E-K): > 3000 nM
COc1cc(/C=C/c2cc(O)cc(NC(C)=O)c2CC=C(C)C)ccc1O [Compound 49, (E)-N-(5-hydroxy-3-(4-hydroxy-3-methoxystyryl)-2-(3-methylbut-2-en-1-yl)phenyl)acetamide] | 1400 | 531 | anticancer activities comparable to 1 | 
Cn1nnc2c(C(N)=O)ncn2c1=O [TMZ, Temozolomide, reference compound] |  |  |  | TMZ Response (GBM patient sample BNB04): MR; TMZ Response (GBM patient sample BNB18): R; TMZ Response (GBM patient sample BNA99): NR
C=CC[C@@H]1/C=C(\C)C[C@H](C)C[C@H](OC)[C@H]2O[C@@](O)(C(=O)C(=O)N3CCCC[C@H]3C(=O)O[C@H](/C(C)=C/[C@@H]3CC[C@@H](O)[C@H](OC)C3)[C@H](C)[C@@H](O)CC1=O)[C@H](C)C[C@@H]2OC [Tacrolimus] |  |  |  | Emax (plateau of the fitted curve), IL-17A release (reference compound) [3]: approximately 90%; EC50 ([3]; read-out: EC50, IL-17A release (reference compound)): ~0.34 nM

More lines, main results first:

IC50 (Brain U-87 MG HTB-14) [nM] | IC50 (Pancreatic MIA PaCa-2; [4]) [nM] | SMILES | Cancer cell viability inhibition, statement in words [1] | further results
~3000 | > 3000 | CCOc1cc(O)cc(/C=C/c2ccc(N(O)C(C)=O)c(OC)c2)c1CC=C(C)C [Compound 39, (E)-N-(4-(3-ethoxy-5-hydroxy-2-(3-methylbut-2-en-1-yl)styryl)-2-methoxyphenyl)-N-hydroxyacetamide] | almost complete loss of anticancer activity | 
555 | 486 | COc1cc(/C=C/c2cc(O)cc(NC=O)c2CC=C(C)C)ccc1O [Compound 48, (E)-N-(5-Hydroxy-3-(4-hydroxy-3-methoxystyryl)-2-(3-methylbut-2-en-1-yl)phenyl)formamide] | anticancer activities comparable to 1 | 
~3000 |  | CCOc1cc(O)cc(/C=C/c2ccc3[nH]c(=O)n(C)c3c2)c1CC=C(C)C [Compound 51, (E)-6-(3-Ethoxy-5-hydroxy-2-(3-methylbut-2-en-1-yl)styryl)-1-methyl-1,3-dihydro-2H-benzo[d]imidazol-2-one] | no significant activity | 
